Common to all, as to assay type: in vivo
The test system of test [1] is transgenic Drosophila expressing GALT6 and SAT1. Description: LC-MS of GM3 ganglioside production in transgenic Drosophila. The note with it: Neu5Ac feeding (+) vs (−), 10 mM Neu5Ac/150 mM sucrose solution, heads of adults. On the procedure: The obtained Drosophila strains were grown on Ebios Cornmeal Sucrose Agar medium at a temperature of 25° C., and in a light-dark cycle of 12 hours. In order to provide a sialic acid donor substrate Neu5Ac, Drosophila was allowed to freely lick filter paper soaked with a 10 mM Neu5Ac/150 mM sucrose solution for 24 hours every other day for 1 to 2 weeks. In order to check whether GM3 ganglioside is produced in the transgenic Drosophila strains prepared, liquid chromatography mass spectrometry (LC-MS) was carried out. The spectrometry was carried out with respect to the following Drosophila strains: (1) wild type (Neu5Ac feeding (−)) (negative control) (2) transgenic Drosophila expressing GALT6 alone (Neu5Ac feeding (−)), (3) transgenic Drosophila expressing GALT6 and SAT1 (Neu5Ac feeding (−)), (4) transgenic Drosophila expressing GALT6 and SAT1 (Neu5Ac feeding (+)), (5) transgenic Drosophila expressing SAT1 alone (Neu5Ac feeding (+)), and (6) transgenic Drosophila expressing GALT6, SAT1 and GNE (Neu5Ac feeding (−)). For each of the transgenic Drosophila strains, 200 to 1000 heads of adults were collected. To the heads, TBS buffer (50 mM Tris-HCl (pH7.6), 150 mM NaCl) was added, and the mixture was homogenized, and then dried. The obtained pellet was suspended in a solution mixture of chloroform: methanol (v/v=2:1) and a lipid extraction liquid was collected. […]

Test [2] deals with transgenic Drosophila strain expressing GALT6, SAT1 and Dut40. In words: Western blotting of aggregated Aβ (TBS insoluble fraction) in brain tissue. The note with it: Neu5Ac feeding (+) compared to (−), GALT6, SAT1 and Dut40 flies. As for the experimental part:
The obtained Drosophila strains were grown on Ebios Cornmeal Sucrose Agar medium at a temperature of 25° C., and in a light-dark cycle of 12 hours. In order to provide a sialic acid donor substrate Neu5Ac, Drosophila was allowed to freely lick filter paper soaked with a 10 mM Neu5Ac/150 mM sucrose solution for 24 hours every other day for 1 to 2 weeks. To confirm whether of GM3 ganglioside-dependent aggregated Aβ is accumulated in the transgenic Drosophila co-expressing GM3 ganglioside and Dut40, a sample prepared from the brain tissue of a transgenic Drosophila strain expressing GALT6, SAT1 and Dut40, was subjected to western blotting. From 100 heads of adults of each of the transgenic Drosophila strain expressing GALT6, SAT1 and Dut40 (Neu5Ac feeding (−)) and the transgenic Drosophila expressing GALT6, SAT1 and Dut40 (Neu5Ac feeding (+)), were collected, homogenized in TBS buffer and subjected to ultracentrifugation (100,000 g, one hour, 4° C.). The supernatant was collected (TBS soluble fraction). The remaining sediment was again homogenized in 100% formic acid and centrifuged (14,000 rpm, 20 minutes, 25° C.) to remove unnecessary components. […] Bands were detected by ECL western blotting detection system (GE Healthcare Life Sciences). The bands detected were analyzed by Image Analysis Software (ImageJ, made by the National Institutes of Health) to convert into numerical values. […]
(A western blot detects proteins with antibodies after separation by electrophoresis.)

Test [3] concerns transgenic Drosophila strains expressing Dut40. Description: Western blotting of aggregated Aβ in Drosophila expressing only Dut40. The note with it: Neu5Ac feeding (−) or (+); flies expressing Dut40 only.

With `CC(=O)N[C@H]1[C@H]([C@@H](O)[C@@H](O)CO)O[C@@](O)(C(=O)O)C[C@@H]1O` [Neu5Ac], the “production of GM3 ganglioside” value in test [1] is “confirmed”. The “amount of aggregated Dut40” value in test [2] was “increased”. In test [3], the “effect on the aggregation of Dut40” value is on record as “does not have an effect”.
